Here are results for 10 compounds from patent US11053250B2, “Pyrrolo[1,2-b]pyridazine derivatives” (Gilead Sciences, Inc., priority 2018, dated 2021).

In one test the test system is TNFα. The test can be described thus: IRAK4 Monocyte TNFα Cell Based Assay. To be noted: cryopreserved human monocytes, LPS 50 pg/ml stimulation, TNFα by TR-FRET. A digest of the protocol: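 Cells (5,000/well) preincubated with compound 1 h at 37° C (0.1% DMSO), then stimulated 4 h with 50 pg/ml LPS. Supernatant TNFα quantified by TR-FRET (665/615 nm ratio). Percent of control scaled between unstimulated (0%) and LPS-stimulated (100%) wells.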
In general terms: Time-resolved FRET reads energy transfer from a long-lived donor to a nearby acceptor.

In a further test the target is IRAK4 enzyme (Homo sapiens (Human), UniProt Q9NWZ3). The test can be described thus: IRAK4 Biochemical Assay (TR-FRET/HTRF). To be noted: 0.75 nM IRAK4, 500 μM ATP, STK1 peptide. A digest of the protocol:
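Compound was preincubated 15 min with 0.75 nM IRAK4 and 2 µM STK1 peptide. Reaction ran 120 min at room temperature with 500 µM ATP in HEPES pH 7.0 buffer (5 mM MgCl2, 1 mM DTT), then HTRF detection of phosphopeptide as the 665/615 nm ratio. % inhibition is relative to no-inhibitor and saturating-staurosporine controls.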

Chain of IRAK4 enzyme (Q9NWZ3 whole entry): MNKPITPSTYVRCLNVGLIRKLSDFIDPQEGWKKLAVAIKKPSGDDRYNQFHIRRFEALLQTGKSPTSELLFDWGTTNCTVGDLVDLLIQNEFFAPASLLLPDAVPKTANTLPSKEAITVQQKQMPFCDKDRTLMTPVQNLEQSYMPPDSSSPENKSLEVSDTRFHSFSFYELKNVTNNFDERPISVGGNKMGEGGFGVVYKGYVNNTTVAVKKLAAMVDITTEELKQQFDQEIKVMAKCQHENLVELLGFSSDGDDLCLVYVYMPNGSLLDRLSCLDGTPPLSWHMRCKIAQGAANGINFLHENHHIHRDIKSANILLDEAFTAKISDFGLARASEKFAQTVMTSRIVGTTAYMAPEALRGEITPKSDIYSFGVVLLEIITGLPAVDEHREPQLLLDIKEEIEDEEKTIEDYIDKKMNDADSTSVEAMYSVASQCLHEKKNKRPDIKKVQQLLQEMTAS

In the test with TNFα (Monocyte), `CC(C)Nc1cc(-c2ccc3cc(C#N)cnn23)ncc1-c1cn(-c2cccnc2)nn1` [Compound 52, 7-(4-(isopropylamino)-5-(1-(pyridin-3-yl)-1H-1,2,3-triazol-4-yl)pyridin-2-yl)pyrrolo[1,2-b]pyridazine-3-carbonitrile] came in with an EC50 of 0.095 µM. It took 0.003 µM to reach half-maximal inhibition on IRAK4 enzyme (IC50).

For the compound `CC(C)Nc1cc(-c2ccc3cc(C#N)cnn23)ncc1-c1cn(C2COC2)nn1` [Compound 53, 7-(4-(isopropylamino)-5-(1-(oxetan-3-yl)-1H-1,2,3-triazol-4-yl)pyridin-2-yl)pyrrolo[1,2-b]pyridazine-3-carbonitrile], in the test with TNFα (Monocyte), the EC50 stood at 0.171 µM. This compound also gave an IC50 against IRAK4 enzyme of 0.002 µM.

In turn, `CC(C)Nc1cc(-c2ccc3cc(C#N)cnn23)ncc1-c1cn(C)nn1` [Compound 55, 7-(4-(isopropylamino)-5-(1-methyl-1H-1,2,3-triazol-4-yl)pyridin-2-yl)pyrrolo[1,2-b]pyridazine-3-carbonitrile] showed an EC50 in the test with TNFα (Monocyte) of 0.162 µM. Further, at IRAK4 enzyme, the IC50 is 0.002 µM.

In the test on TNFα (Monocyte), `COC(=O)Cn1cc(-c2cnc(-c3ccc4cc(C#N)cnn34)cc2NC(C)C)nn1` [Compound 56, methyl 2-(4-(6-(3-cyanopyrrolo[1,2-b]pyridazin-7-yl)-4-(isopropylamino)pyridin-3-yl)-1H-1,2,3-triazol-1-yl)acetate] yielded an EC50 of 0.042 µM. The IC50 at IRAK4 enzyme was less than 0.001 µM.

`CC(C)Nc1cc(-c2ccc3cc(C#N)cnn23)ncc1-c1cn(C23CC(C2)C3)nn1` [Compound 57, 7-(5-(1-(bicyclo[1.1.1]pentan-1-yl)-1H-1,2,3-triazol-4-yl)-4-(isopropylamino)pyridin-2-yl)pyrrolo[1,2-b]pyridazine-3-carbonitrile] showed an EC50 in the test on TNFα (Monocyte) of 1.12 µM. The IC50 on IRAK4 enzyme is 0.014 µM.

Compound `CC(C)Nc1cc(-c2ccc3cc(C#N)cnn23)ncc1-c1cn(C2(C(F)(F)F)CC2)nn1` [Compound 58, 7-(4-(isopropylamino)-5-(1-(1-(trifluoromethyl)cyclopropyl)-1H-1,2,3-triazol-4-yl)pyridin-2-yl)pyrrolo[1,2-b]pyridazine-3-carbonitrile] showed an EC50 with TNFα (Monocyte) of 1.24 µM. On IRAK4 enzyme, this compound showed an IC50 of 0.012 µM.

With `CC(C)Nc1cc(-c2ccc3cc(C#N)cnn23)ncc1-c1cn(C2CCOCC2)nn1` [Compound 59, 7-(4-(isopropylamino)-5-(1-(tetrahydro-2H-pyran-4-yl)-1H-1,2,3-triazol-4-yl)pyridin-2-yl)pyrrolo[1,2-b]pyridazine-3-carbonitrile], in the test with TNFα (Monocyte), it took 0.058 µM to reach a half-maximal effect (EC50). The same compound gave an IC50 against IRAK4 enzyme of less than 0.001 µM.

In turn, `CC(C)Nc1cc(-c2ccc3cc(C#N)cnn23)ncc1-n1cc(C2CCOCC2)nn1` [Compound 60, 7-(4-(isopropylamino)-5-(4-(tetrahydro-2H-pyran-4-yl)-1H-1,2,3-triazol-1-yl)pyridin-2-yl)pyrrolo[1,2-b]pyridazine-3-carbonitrile] gave a half-maximal effective concentration (EC50) with TNFα (Monocyte) of 0.184 µM. In addition, on IRAK4 enzyme, the IC50 was determined as 0.002 µM.

In the test with TNFα, `CC(=O)N[C@H]1CC[C@H](c2cn(-c3cnc(-c4ccc5cc(C#N)cnn45)cc3NC(C)C)nn2)CC1` [Compound 61, N-((1r,4r)-4-(1-(6-(3-cyanopyrrolo[1,2-b]pyridazin-7-yl)-4-(isopropylamino)pyridin-3-yl)-1H-1,2,3-triazol-4-yl)cyclohexyl)acetamide] showed an EC50 of 0.075 µM. Further, the IC50 on IRAK4 enzyme worked out at 0.002 µM.

For the compound `CC(C)Nc1cc(-c2ccc3cc(C#N)cnn23)ncc1-n1cc([C@H]2CC[C@H](NC(=O)OC(C)(C)C)CC2)nn1` [Compound 64, tert-butyl ((1r,4r)-4-(1-(6-(3-cyanopyrrolo[1,2-b]pyridazin-7-yl)-4-(isopropylamino)pyridin-3-yl)-1H-1,2,3-triazol-4-yl)cyclohexyl)carbamate], the midpoint of the response with TNFα, the EC50, lay at 0.121 µM. Further, the IC50 at IRAK4 enzyme turned out to be 0.002 µM.

By EC50 is commonly meant the concentration at which the effect is half-maximal. Read a low EC50 as higher potency in that assay. One may read the IC50 as the concentration that gives 50% inhibition. Lower therefore signals higher potency.
